{"source": "patent EP4782431A1", "about": "(Suzhou Merna Therapeutics Co. Ltd, priority 2023, dated 2025)", "assay_type_in_all_cases": "physicochemical", "key": {"[1]": {"assay": "stability of crystal forms (XRPD, HPLC, color)", "experimental": "(§1) A 2θ scanning angle of the sample was 3°-40°, a scanning step size was 0.02°, and a scanning time per step was 0.12 s/step. An optical tube voltage and a current were 40 kV and 40 mA, respectively. During sample preparation, an appropriate amount of the sample was placed on a sample tray and flattened with a tool such as a glass slide to ensure a smooth and even surface.\nAn Agilent 1260 infinityII binary pump was used for solubility and stability testing.\nThe stability of samples under these conditions was detected by XRPD and HPLC, and whether the samples had color changes was observed.\n(§2) A certain amount of the crystal form C of the compound of formula (I) was weighed and placed in an open container at 25°C/92.5%RH for 1 week. A certain amount of the crystal form C of the compound of formula (I) was weighed and placed in a closed container at 60°C for 1 week. The stability of samples under these conditions was detected by XRPD and HPLC, and whether the samples had color changes was observed. Table 16 Stability test results of the crystal form C of the compound of formula (I)\nas §2, with “form D” for “form C”, “Table 17” for “Table 16”\nas §2, with “form E” for “form C”, “Table 18” for “Table 16”"}, "[2]": {"assay": "stability of crystal forms (XRPD, HPLC, color)", "settings": "25°C/92%RH open, 1 week"}, "[3]": {"assay": "competitive suspension tests of crystal forms (XRPD)", "experimental": "as §1\nResulting suspensions were suspended at 5°C, 25°C, and 50°C for 3 days, respectively. The resulting suspensions were centrifuged, and solid portions were detected by XRPD."}, "[4]": {"assay": "hygroscopicity by dynamic vapor sorption (DVS)", "settings": "for 1st adsorption Percentage of weight change / 1st desorption Percentage of weight change / 2nd adsorption Percentage of weight change / 2nd desorption Percentage of weight change: 40-0-95-0-40%RH, 240 min per step", "experimental": "ProUmid SPSx-1µ Advance was used for analysis of a sample. The sample to be tested was approximately in an amount of 5-50 mg. A temperature in a test chamber was controlled at 25±1°C, a relative humidity cycle was […], a step size was 10%, an equilibrium time was 240 minutes per step, and mass data was recorded every 20 seconds.\nA DVS cycle was 40-0-95-0-40%RH. XRPD detection was performed on samples after the DVS testing to determine whether crystal form transformation occurred."}}, "data": [{"smiles": "NC(=O)[C@H]1CCCc2c1[nH]c1ccc(Cl)cc21", "note": "[Crystal form F, (S)-6-chloro-2,3,4,9-tetrahydro-1H-carbazole-carboxamide]", "values": [{"measurement": "Color", "setting": "[1]; 60°C, closed, 1 week", "result": "No change"}, {"measurement": "Degradation (%)", "setting": "[1]; 60°C, closed, 1 week", "result": "None"}, {"measurement": "Purity (%)", "setting": "[1]; 60°C, closed, 1 week", "result": 99.8, "unit": "%"}, {"measurement": "Purity (%)", "setting": "[1]; Initial", "result": 99.8, "unit": "%"}, {"measurement": "Color", "setting": "[2]", "result": "No change"}, {"measurement": "Degradation (%)", "setting": "[2]", "result": "None"}, {"measurement": "Purity (%)", "setting": "[2]", "result": 99.8, "unit": "%"}, {"measurement": "crystal form after competitive suspension slurrying", "setting": "[3]; isopropanol, isopropyl acetate, and acetonitrile, 5°C, 25°C, 50°C, 3 days", "result": "converted into the crystal form F"}, {"measurement": "relative stability of crystal forms", "setting": "[3]; temperature range of 5°C to 50°C", "result": "more stable than the crystal forms B and G"}, {"measurement": "Hygroscopicity Conclusion", "setting": "[4]; DVS at 25°C, Table 13", "result": "No hygroscopicity"}, {"measurement": "1st adsorption Percentage of weight change", "setting": "[4]; Relative humidity 0% at 25°C", "result": 0.1, "unit": "%"}, {"measurement": "1st desorption Percentage of weight change", "setting": "[4]; Relative humidity 0% at 25°C", "result": 0.1, "unit": "%"}, {"measurement": "2nd adsorption Percentage of weight change", "setting": "[4]; Relative humidity 0% at 25°C", "result": 0.3, "unit": "%"}, {"measurement": "2nd desorption Percentage of weight change", "setting": "[4]; Relative humidity 0% at 25°C", "result": 0.3, "unit": "%"}, {"measurement": "1st adsorption Percentage of weight change", "setting": "[4]; Relative humidity 10% at 25°C", "result": 0.2, "unit": "%"}, {"measurement": "1st desorption Percentage of weight change", "setting": "[4]; Relative humidity 10% at 25°C", "result": 0.3, "unit": "%"}, {"measurement": "2nd adsorption Percentage of weight change", "setting": "[4]; Relative humidity 10% at 25°C", "result": 0.2, "unit": "%"}, {"measurement": "2nd desorption Percentage of weight change", "setting": "[4]; Relative humidity 10% at 25°C", "result": 0.3, "unit": "%"}, {"measurement": "1st adsorption Percentage of weight change", "setting": "[4]; Relative humidity 20% at 25°C", "result": 0.2, "unit": "%"}, {"measurement": "1st desorption Percentage of weight change", "setting": "[4]; Relative humidity 20% at 25°C", "result": 0.1, "unit": "%"}, {"measurement": "2nd adsorption Percentage of weight change", "setting": "[4]; Relative humidity 20% at 25°C", "result": 0.2, "unit": "%"}, {"measurement": "2nd desorption Percentage of weight change", "setting": "[4]; Relative humidity 20% at 25°C", "result": 0.4, "unit": "%"}, {"measurement": "1st adsorption Percentage of weight change", "setting": "[4]; Relative humidity 30% at 25°C", "result": 0.1, "unit": "%"}, {"measurement": "1st desorption Percentage of weight change", "setting": "[4]; Relative humidity 30% at 25°C", "result": 0.1, "unit": "%"}, {"measurement": "2nd adsorption Percentage of weight change", "setting": "[4]; Relative humidity 30% at 25°C", "result": 0.0, "unit": "%"}, {"measurement": "2nd desorption Percentage of weight change", "setting": "[4]; Relative humidity 30% at 25°C", "result": 0.1, "unit": "%"}, {"measurement": "1st adsorption Percentage of weight change", "setting": "[4]; Relative humidity 40% at 25°C", "result": 0.2, "unit": "%"}, {"measurement": "1st desorption Percentage of weight change", "setting": "[4]; Relative humidity 40% at 25°C", "result": 0.2, "unit": "%"}, {"measurement": "2nd adsorption Percentage of weight change", "setting": "[4]; Relative humidity 40% at 25°C", "result": 0.0, "unit": "%"}, {"measurement": "2nd desorption Percentage of weight change", "setting": "[4]; Relative humidity 40% at 25°C", "result": 0.4, "unit": "%"}, {"measurement": "1st adsorption Percentage of weight change", "setting": "[4]; Relative humidity 50% at 25°C", "result": 0.2, "unit": "%"}, {"measurement": "2nd desorption Percentage of weight change", "setting": "[4]; Relative humidity 50% at 25°C", "result": 0.2, "unit": "%"}, {"measurement": "1st adsorption Percentage of weight change", "setting": "[4]; Relative humidity 60% at 25°C", "result": 0.2, "unit": "%"}, {"measurement": "2nd desorption Percentage of weight change", "setting": "[4]; Relative humidity 60% at 25°C", "result": 0.2, "unit": "%"}, {"measurement": "1st adsorption Percentage of weight change", "setting": "[4]; Relative humidity 70% at 25°C", "result": 0.2, "unit": "%"}, {"measurement": "2nd desorption Percentage of weight change", "setting": "[4]; Relative humidity 70% at 25°C", "result": 0.2, "unit": "%"}, {"measurement": "1st adsorption Percentage of weight change", "setting": "[4]; Relative humidity 80% at 25°C", "result": 0.1, "unit": "%"}, {"measurement": "2nd desorption Percentage of weight change", "setting": "[4]; Relative humidity 80% at 25°C", "result": 0.0, "unit": "%"}, {"measurement": "1st adsorption Percentage of weight change", "setting": "[4]; Relative humidity 90% at 25°C", "result": 0.3, "unit": "%"}, {"measurement": "2nd desorption Percentage of weight change", "setting": "[4]; Relative humidity 90% at 25°C", "result": 0.1, "unit": "%"}, {"measurement": "1st adsorption Percentage of weight change", "setting": "[4]; Relative humidity 95% at 25°C", "result": 0.1, "unit": "%"}, {"measurement": "2nd desorption Percentage of weight change", "setting": "[4]; Relative humidity 95% at 25°C", "result": 0.1, "unit": "%"}, {"measurement": "XRPD after DVS testing", "setting": "[4]; after DVS cycle 40-0-95-0-40%RH at 25°C", "result": "Crystal form F"}]}]}
